Measured values from US10227323B2, “Glucosylceramide synthase inhibitors for the treatment of diseases” (BIOMARIN PHARMACEUTICAL INC., priority 2013, dated 2019).

What follows are molecules tested against T1, GCS (Canis lupus familiaris, UniProt A0A8I3MXG6) (assay: Assay 1: GCS Enzymatic Assay (MDCK cell lysate, C6-NBD-Ceramide, LC/MS)). Settings: Table 2; data marked by *.
T1 sequence (A0A8I3MXG6 1-394): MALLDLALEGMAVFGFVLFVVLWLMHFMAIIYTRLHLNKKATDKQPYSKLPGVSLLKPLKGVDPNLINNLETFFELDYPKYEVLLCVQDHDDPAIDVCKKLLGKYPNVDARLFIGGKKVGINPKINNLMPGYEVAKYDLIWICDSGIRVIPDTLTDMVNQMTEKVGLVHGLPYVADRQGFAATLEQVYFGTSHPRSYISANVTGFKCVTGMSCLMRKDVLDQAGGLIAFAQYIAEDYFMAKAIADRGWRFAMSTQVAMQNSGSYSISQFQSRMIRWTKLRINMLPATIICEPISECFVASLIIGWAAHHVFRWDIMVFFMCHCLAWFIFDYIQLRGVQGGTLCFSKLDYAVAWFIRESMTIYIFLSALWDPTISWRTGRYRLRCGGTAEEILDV
Type: biochemical, canine
Summary of the method: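 LC/MS/MS measurement of glucosylceramide and NBD-ceramide after a 1 h, 37 °C reaction with 100 μM UDP-glucose and 10 μM C6-NBD-ceramide gave IC50s or percent inhibition.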

SMILES	% inhibition generated from Assay 1
CC1CN(C[C@@H](NC(=O)C(F)(F)CCc2ccc3cc(F)ccc3c2)[C@H](O)c2ccc3c(c2)OCCO3)C1 [Compound 96, N-((1R,2R)-1-(2,3-dihydrobenzo[b][1,4]dioxin-6-yl)-1-hydroxy-3-(3-methylazetidin-1-yl)propan-2-yl)-2,2-difluoro-4-(6-fluoronaphthalen-2-yl)butanamide]	A* (the compound had a % inhibition of a percent inhibition of greater than or equal to about 50%)
CC(C)Oc1ccc([C@@H](O)[C@@H](CN2CCCC2)NC(=O)C(F)(F)CCc2ccc3cc(F)ccc3c2)cn1 [Compound 97, 2,2-difluoro-4-(6-fluoronaphthalen-2-yl)-N-((1R,2R)-1-hydroxy-1-(6-isopropoxypyridin-3-yl)-3-(pyrrolidin-1-yl)propan-2-yl)butanamide]	A* (the compound had a % inhibition of a percent inhibition of greater than or equal to about 50%)
CC1CN(C[C@@H](NC(=O)C(=O)c2cc3cc(Cl)ccc3o2)[C@H](O)c2ccc3c(c2)OCCO3)C1 [Compound 100, 2-(5-chlorobenzofuran-2-yl)-N-((1R,2R)-1-(2,3-dihydrobenzo[b][1,4]dioxin-6-yl)-1-hydroxy-3-(3-methylazetidin-1-yl)propan-2-yl)-2-oxoacetamide]	B* (the compound had a % inhibition of greater than or equal to about 3% but less than about 50%)
CC(C)Oc1cc([C@@H](O)[C@@H](CN2CCCC2)NC(=O)C(F)(F)CCc2ccc3cc(F)ccc3c2)ccn1 [Compound 114, 2,2-difluoro-4-(6-fluoronaphthalen-2-yl)-N-((1R,2R)-1-hydroxy-1-(2-isopropoxypyridin-4-yl)-3-(pyrrolidin-1-yl)propan-2-yl)butanamide]	A* (the compound had a % inhibition of a percent inhibition of greater than or equal to about 50%)

Same assay, conditions: Table 2; data without asterisk; read-out: IC50 (nM) generated from Assay 1

SMILES	IC50 [nM]
O=C(N[C@H](CN1CCCC1)[C@H](O)c1ccc(OCC(F)(F)F)nc1)C(F)(F)CCc1ccc2ccccc2c1 [Compound 108, 2,2-difluoro-N-((1R,2R)-1-hydroxy-3-(pyrrolidin-1-yl)-1-(6-(2,2,2-trifluoroethoxy)pyridin-3-yl)propan-2-yl)-4-(naphthalen-2-yl)butanamide]	50 to 5000
O=C(N[C@H](CN1CCCC1)[C@H](O)c1cc(F)c2c(c1)OCCO2)C(F)(F)CCc1ccc2ccccc2c1 [Compound 109, 2,2-difluoro-N-((1R,2R)-1-(8-fluoro-2,3-dihydrobenzo[b][1,4]dioxin-6-yl)-1-hydroxy-3-(pyrrolidin-1-yl)propan-2-yl)-4-(naphthalen-2-yl)butanamide]	< 50
O=C(N[C@H](CN1CCCC1)[C@H](O)c1ccc(OC2CCOCC2)c(Cl)c1)C(F)(F)CCc1ccc2ccccc2c1 [Compound 110, N-((1R,2R)-1-(3-chloro-4-((tetrahydro-2H-pyran-4-yl)oxy)phenyl)-1-hydroxy-3-(pyrrolidin-1-yl)propan-2-yl)-2,2-difluoro-4-(naphthalen-2-yl)butanamide]	< 50
O=C(CCc1ccc2cc(F)ccc2c1)C(=O)N[C@H](CN1CCCC1)[C@H](O)c1cc(F)c2c(c1)OCCO2 [Compound 111, N-((1R,2R)-1-(8-fluoro-2,3-dihydrobenzo[b][1,4]dioxin-6-yl)-1-hydroxy-3-(pyrrolidin-1-yl)propan-2-yl)-4-(6-fluoronaphthalen-2-yl)-2-oxobutanamide]	< 50
O=C(N[C@H](CN1CCCC1)[C@H](O)c1ccc(OC2CC2)c(Cl)c1)/C(CCc1ccc2cc(F)ccc2c1)=N/O [Compound 112, (E)-N-((1R,2R)-1-(3-chloro-4-cyclopropoxyphenyl)-1-hydroxy-3-(pyrrolidin-1-yl)propan-2-yl)-4-(6-fluoronaphthalen-2-yl)-2-(hydroxyimino)butanamide]	< 50
O=C(N[C@H](CN1CCCC1)[C@H](O)c1cc(F)c2c(c1)OCCO2)/C(CCc1ccc2cc(F)ccc2c1)=N/O [Compound 115, (E)-N-((1R,2R)-1-(8-fluoro-2,3-dihydrobenzo[b][1,4]dioxin-6-yl)-1-hydroxy-3-(pyrrolidin-1-yl)propan-2-yl)-4-(6-fluoronaphthalen-2-yl)-2-(hydroxyimino)butanamide]	< 50
O=C(N[C@H](CN1CCCC1)[C@H](O)c1ccc(OC2CCOCC2)c(Cl)c1)C(F)(F)C1Cc2ccc(Cl)cc2C1 (stereo partly drawn) [Compound 116, 2-(5-chloro-2,3-dihydro-1H-inden-2-yl)-N-((1R,2R)-1-(3-chloro-4-((tetrahydro-2H-pyran-4-yl)oxy)phenyl)-1-hydroxy-3-(pyrrolidin-1-yl)propan-2-yl)-2,2-difluoroacetamide]	< 50
O=C(N[C@H](CN1CCC1)[C@H](O)c1cc(F)c2c(c1)OCCO2)/C(CCc1ccc2cc(F)ccc2c1)=N/O [Compound 118, (E)-N-((1R,2R)-3-(azetidin-1-yl)-1-(8-fluoro-2,3-dihydrobenzo[b][1,4]dioxin-6-yl)-1-hydroxypropan-2-yl)-4-(6-fluoronaphthalen-2-yl)-2-(hydroxyimino)butanamide]	50 to 5000

Further lines, results first:

IC50 [nM]	SMILES
< 50	O=C(N[C@H](CN1CCC1)[C@H](O)c1cc(F)c2c(c1)OCCO2)C(F)(F)C1Cc2ccc(Cl)cc2C1 (stereo partly drawn) [Compound 92, N-((1R,2R)-3-(azetidin-1-yl)-1-(8-fluoro-2,3-dihydrobenzo[b][1,4]dioxin-6-yl)-1-hydroxypropan-2-yl)-2-(5-chloro-2,3-dihydro-1H-inden-2-yl)-2,2-difluoroacetamide]
< 50	O=C(N[C@H](CN1CCCC1)[C@H](O)c1cc(F)c2c(c1)OCCO2)C(F)(F)C1Cc2ccc(Cl)cc2C1 (stereo partly drawn) [Compound 93, 2-(5-chloro-2,3-dihydro-1H-inden-2-yl)-2,2-difluoro-N-((1R,2R)-1-(8-fluoro-2,3-dihydrobenzo[b][1,4]dioxin-6-yl)-1-hydroxy-3-(pyrrolidin-1-yl)propan-2-yl)acetamide]
< 50	CC(C)Oc1ccc([C@@H](O)[C@@H](CN2CCCC2)NC(=O)C(F)(F)c2cc3cc(Cl)ccc3o2)cc1Cl [Compound 94, N-((1R,2R)-1-(3-chloro-4-isopropoxyphenyl)-1-hydroxy-3-(pyrrolidin-1-yl)propan-2-yl)-2-(5-chlorobenzofuran-2-yl)-2,2-difluoroacetamide]
< 50	O=C(N[C@H](CN1CCCC1)[C@H](O)c1cc(F)c2c(c1)OCCO2)C(=O)c1cc2cc(Cl)ccc2o1 [Compound 95, 2-(5-chlorobenzofuran-2-yl)-N-((1R,2R)-1-(8-fluoro-2,3-dihydrobenzo[b][1,4]dioxin-6-yl)-1-hydroxy-3-(pyrrolidin-1-yl)propan-2-yl)-2-oxoacetamide]
< 50	O=C(N[C@H](CN1CCC1)[C@H](O)c1cc(F)c2c(c1)OCCO2)C(=NO)c1cc2cc(Cl)ccc2o1 [Compound 98, N-((1R,2R)-3-(azetidin-1-yl)-1-(8-fluoro-2,3-dihydrobenzo[b][1,4]dioxin-6-yl)-1-hydroxypropan-2-yl)-2-(5-chlorobenzofuran-2-yl)-2-(hydroxyimino)acetamide]
< 50	O=C(N[C@H](CN1CCCC1)[C@H](O)c1ccc(OC2CC2)nc1)C(F)(F)c1cc2cc(Cl)ccc2o1 [Compound 99, 2-(5-chlorobenzofuran-2-yl)-N-((1R,2R)-1-(6-cyclopropoxypyridin-3-yl)-1-hydroxy-3-(pyrrolidin-1-yl)propan-2-yl)-2,2-difluoroacetamide]
< 50	O=C(N[C@H](CN1CCCC1)[C@H](O)c1ccc(OC2CC2)nc1)C(F)(F)CCc1ccc2cc(F)ccc2c1 [Compound 101, N-((1R,2R)-1-(6-cyclopropoxypyridin-3-yl)-1-hydroxy-3-(pyrrolidin-1-yl)propan-2-yl)-2,2-difluoro-4-(6-fluoronaphthalen-2-yl)butanamide]
< 50	CC1CN(C[C@@H](NC(=O)/C(=N/O)c2cc3cc(Cl)ccc3o2)[C@H](O)c2ccc3c(c2)OCCO3)C1 [Compound 102, (E)-2-(5-chlorobenzofuran-2-yl)-N-((1R,2R)-1-(2,3-dihydrobenzo[b][1,4]dioxin-6-yl)-1-hydroxy-3-(3-methylazetidin-1-yl)propan-2-yl)-2-(hydroxyimino)acetamide]
< 50	O=C(N[C@H](CN1CCCC1)[C@H](O)c1cc(F)c2c(c1)OCCO2)/C(=N/O)c1cc2cc(Cl)ccc2o1 [Compound 104, (E)-2-(5-chlorobenzofuran-2-yl)-N-((1R,2R)-1-(8-fluoro-2,3-dihydrobenzo[b][1,4]dioxin-6-yl)-1-hydroxy-3-(pyrrolidin-1-yl)propan-2-yl)-2-(hydroxyimino)acetamide]
< 50	O=C(N[C@H](CN1CCCC1)[C@H](O)c1ccc(OC2CCOCC2)c(Cl)c1)C(F)(F)c1cc2cc(Cl)ccc2o1 [Compound 105, N-((1R,2R)-1-(3-chloro-4-((tetrahydro-2H-pyran-4-yl)oxy)phenyl)-1-hydroxy-3-(pyrrolidin-1-yl)propan-2-yl)-2-(5-chlorobenzofuran-2-yl)-2,2-difluoroacetamide]
< 50	O=C(N[C@H](CN1CCCC1)[C@H](O)c1ccc2c(c1)OCCO2)/C(CCc1ccc2cc(F)ccc2c1)=N/O [Compound 106, (E)-N-((1R,2R)-1-(2,3-dihydrobenzo[b][1,4]dioxin-6-yl)-1-hydroxy-3-(pyrrolidin-1-yl)propan-2-yl)-4-(6-fluoronaphthalen-2-yl)-2-(hydroxyimino)butanamide]
< 50	CC(C)Oc1ccc([C@@H](O)[C@@H](CN2CCCC2)NC(=O)C(F)(F)CCc2ccc3ccccc3c2)cn1 [Compound 107, 2,2-difluoro-N-((1R,2R)-1-hydroxy-1-(6-isopropoxypyridin-3-yl)-3-(pyrrolidin-1-yl)propan-2-yl)-4-(naphthalen-2-yl)butanamide]
